In patent publication US10583109B2, “Use of silver(I) complexes as anticancer agents” (University of Johannesburg, priority 2012, dated 2020):

How the values were obtained:
Format in all cases: cell-based
[1] = test system: SNO-oesophageal cancer cells; experiment: Morphological features of SNO-oesophageal cancer cells by inverse light microscopy; details: 10 μM, 24 hours of treatment
Method: Morphological studies were done by means of an Axiovert 25 inverted microscope (Carl Zeiss, Göttingen, Germany) with Axio Vision 3.1 software (Carl Zeiss, Göttingen, Germany) using an magnification of 100×.
After 24 hours of treatment with complexes (1)-(5) including their ligands the cells were examined under said Axiovert 25 inverted light microscope. This was done to determine how the complexes of the present invention influence morphology which was compared to 100 μM Cisplatin (apoptotic control) and 15% H2O2 (necrotic control).
Light microscope images indicating the morphology of the differentially treated SNO-oesophageal cancer cells is shown in FIG. 8. An untreated control (a) including 100 μM Cisplatin (b), an apoptotic control and 15% H2O2 (c), and a necrotic control was included. Cells were treated with 10 μM silver(I) thiocyanate phosphine complexes (1)-(5) as well as their separate ligands (Ligand-1 to Ligand-5, respectively) (FIGS. 8d to 8m). Black arrows represent signs of apoptosis, while the white arrows represent signs of necrosis.
An Axiovert 25 inverted microscope was used to examine if these complexes affect the morphological features of the malignant cells in any other way. This was done at a magnification of 100× with the use of Axio Version 3.1 software (Carl Zeiss, Gottingen, Germany).
Morphological studies where done after 24 hours of treatment to determine how these compounds influence/change specific features of the malignant SNO-oesophageal cancer cells, compared to the untreated (UC) and 1% DMSO vehicle control. The treated cancer cells including their controls were examined under an Axiovert 25 inverted light microscope (Carl Zeiss, Göttingen, Germany) with Axio Vision 3.1 software (Carl Zeiss, Göttingen, Germany) using a 100× magnification. In FIG. 19, the morphology of the different controls including Ligand-10 and complexes (10)-(12) are represented. To predict the targeting mechanisms of these compounds, the treated cells were compared to 100 μM Cisplatin (apoptotic control) and 25% H2O2 (necrotic control).

[2] = test system: SNO-oesophageal cancer cells; experiment: Flow cytometric analysis (Annexin-V FITC / PI) of apoptosis and/or necrosis in SNO-oesophageal cancer cells; details: 10 μM, 24 hours of treatment
Method: To determine if either apoptosis or necrosis occurred, the cells were double labelled with Annexin-V FITC and Propidium Iodide (PI) by means of an Annexin-V FITC assay kit (Serotec, UK). This was done according to manufacturer's instructions with a few adjustments. Briefly, the cells (±3×10^5 cells/ml) were washed twice with cold phosphate buffered saline (PBS), followed by the addition of 100 μl 1× binding buffer. Two and a half microliters of Annexin-V along with 5 μl PI were added in the dark and was incubated for 15 minutes at room temperature. After incubation, 400 μl 1× binding buffer was added and cells were analysed using the FACSAria flow cytometer (BD Biosciences, San Jose, Calif.) with FACSDiva software (BD Biosciences, San Jose, Calif.) 492 nm (excitation) and 520 nm for Annexin and 488 nm and 575 nm(emission) for PI.
The cell membrane contains a negatively charged phosphatidylserine (PS) on the inner leaflet and is exposed when apoptosis or necrosis takes place. Annexin-V interacts with PS in both apoptotic and necrotic cells, making these cellular deaths undistinguishable. This is overcome by using PI as an alternative label that interacts with the exposed DNA of necrotic cells only, leading to the fluorescent detection of both these labels. Pie charts (FIG. 9) were constructed for all the controls (including Ligand-1 to Ligand-5) and the different silver(I) thiocyanate phosphine complexes (1)-(5).
Pie charts representing the four different flow cytometric quadrants of Annexin-V and […] to determine the mode of cellular death induced in differentially treated SNO-oesophageal cells are represented in FIG. 9. An untreated control (A), apoptotic control (B) and necrotic control (C) were included. Cells were treated with 10 μM of the different ligands including the silver(I) thiocyanate phosphine complexes (1)-(5). An average percentage was calculated for all segments where the SEM is n=3 for all treatments except for 15% H2O2 (n=2). The four segments represent the following: White segment—negative for FITC and PI, Light grey segment—positive for FITC but negative for PI, Dark grey segment—positive for PI but negative for FITC and Black segment—positive for both FITC and PI. Cells undergoing early apoptosis are represented by the light grey segment, while those of late apoptosis and primary necrosis are represented by the black segment. Necrotic cells are represented by the dark grey segment and intact viable cells are shown by the white segment.
Approximately 3×10^5 cells were washed with ice cold phosphate buffered saline solution (PBS). The cells were double labeled using an Annexin-V FITC assay kit adjusting the protocol. A 1× binding buffer (100 μl) was used to fix the cells. Annexin-V (2.5 μl) and Propidium Iodide (PI—5 μl) labels were added respectively followed by a 15 minute incubation, at room temperature, in the dark. After the incubation period, 400 μl of the 1× binding buffer was added, where counting of the cellular events was made using an FACSAria flow cytometer (BD Biosciences, San Jose, Calif.) with FACSDiva software (BD Biosciences, San Jose, Calif.). This technique in particular identifies whether predicted apoptotic cell death (or necrosis) was induced by these complexes.
As observed in FIG. 14, dot blots represent the mode of cellular death induced in the SNO-oesophageal cancer cells after 24 hours of treatment. FIG. 14(a): 0.1% DMSO, FIG. 14(b): 100 μM CDDP, FIG. 14(c): 25% H2O2, FIG. 14(d-i): complexes (6)-(9). An average percentage was calculated for all quadrants where the SEM is n=2 for all treatments. The four quadrants represent the following: Quadrant Q3 is negative for FITC and PI, Quadrant Q4 is positive for FITC but negative for PI, Quadrant Q1 is positive for PI but negative for FITC and Quadrant Q2 is positive for both FITC and PI. Cells undergoing early apoptosis are more likely to be found in Quadrant Q4 while those of late apoptosis and primary necrosis will be found in Quadrant Q2. […]

[3] = test system: SNO-oesophageal cancer cells; details: for cells' viability: 10 µM
Method: The SNO-oesophageal cancer cells were cultured in Dulbecco's modified Eagles medium (DMEM) containing 10% Foetal bovine serum (FBS), 0.8% Penicillin/Streptomycin/Fungizone and 0.2% Gentamycin. The SNO-oesophageal cancer cells were subcultured every 48 hours and incubated at 37° C. under a 5% CO2 humidified atmosphere. After 48 hours the cells were trypsinized and plated (6×10^5 cells) in 3.5 cm culture dishes and left to cultivate for 24 hours.
MCF-7 breast cancer cells, in terms of a first study, and SNO-oesophageal cancer cells, in terms of a second study, were treated with 10 μM silverthiocyanide complexes (1)-(5), as well as their ligands (Ligand-1 to Ligand-5) over a 24 hour incubation period. These complexes were dissolved in 0.1% Dimethyl sulfoxide (DMSO). The DMSO alone (vehicle control) decreased the viability with approximately 2.2%, signifying its minimal influence in cancer cell growth. For comparative purposes, 100 μM Cisplatin (CDDP) and 25% H2O2 was included which respectively serves as the apoptotic and necrotic controls. Cisplatin was prepared in 0.9% NaCl, whereas H2O2 was prepared in the supplemented DMEM media right before treatment. An untreated negative control (UT) was exposed to similar conditions as the treated cells and monitored during the experimental study.
An AlamarBlue® Viability® (Serotec, UK) assay was performed after a 24 hour treatment with complexes (1)-(5) and their ligands (Ligand-1 to Ligand-5, respectively) to evaluate the cellular effect the instant complexes (and their ligands) may have on the cancer cells. AlamarBlue® dye (10%) was incubated with trypsinized cells over a 2 hour period before the fluorescence was measured with a Synergy HT Multi-Detection Microplate reader (BioTek, Winooski, Vt.) at wavelengths of 530 nm and (excitation) and 590 nm (emission). This fluorescent based assay in particular involves the metabolic oxidation-reduction reaction of resazurin to a reduced resorufin product that is directly proportional to the amount of viable cells.
The percentage cellular viability of differentially treated SNO-oesophageal cells was determined using an AlamarBlue® assay, as depicted in FIG. 7. Different controls (grey) were included: untreated, 0.1% DMSO solvent and apoptotic control (100 μM Cisplatin) as well as the corresponding ligands (10 μM) of complexes (1)-(5). Cells were treated with silver(I) thiocyanate phosphine complexes (1)-(5) at a concentration of 10 μM. The percentages were calculated with respect to the control and error bars were constructed on the basis of Standard Error of the Mean (SEM) where n=9 except for the ligand of compound 4 (n=8). The P-values (*P<0.001 and **P<0.0001) were determined with the Student's T-test to evaluate the significant difference.
The cells were thereafter treated with complexes (6)-(9) at a concentration of 10 μM prepared in 0.1% DMSO. Treatment with either 25% H2O2 or 100 μM CDDP served as controls for necrosis and apoptosis respectively. The CDDP was prepared in 0.9% NaCl while the H2O2 was diluted with supplemented DMEM prior to treatment.
A suspension (100 μl) of the differentially treated cells was added in triplicate to a microtiter plate. In the dark, AlamarBlue® dye (10 μl) was added to each well containing a sample, followed by a 2 hour incubation in a 5% CO2 incubator at 37° C. The fluorescence was read on a Synergy HT Multi-Detection Microplate reader at a wavelength of 530 nm and (excitation) and 590 nm (emission). In terms of this study, the apoptotic control CDDP (100 μM) was included. Error bars represent the standard error of the mean (SEM) where n=9. The Student's T-test was used to determine the significant difference of the treatments with respect to DMSO (P*<0.05 and P**<0.001). The silver(I) nitrate phosphine complexes under evaluation decreased the cancer cell viability to a large extent compared to DMSO except complex (9).
SNO-oesophageal cancer cells were a gift from the University of Pretoria, RSA. […]

Row | Compound | signs of apoptosis (morphology) [1] | apoptotic cell death (flow cytometry, Q4 and Q2) [2] [%] | also measured
1 | Fc1ccc(P(c2ccc(F)cc2)c2ccc(F)cc2)cc1 [Ligand-3, P(4-FC6H4)3, reference compound] | no | – | –
2 | O=[N+]([O-])[O-].[Ag+].c1ccc(P(c2ccccc2)c2ccccc2)cc1 [complex (6), AgNO3(PPh3)] | – | 20 | –
3 | O=[N+]([O-])[O][Ag]([P+](c1ccccc1)(c1ccccc1)c1ccccc1)([P+](c1ccccc1)(c1ccccc1)c1ccccc1)[P+](c1ccccc1)(c1ccccc1)c1ccccc1 [complex (8), AgNO3(PPh3)3] | – | 24 | –
4 | O=[N+]1[O][Ag]([P+](c2ccccc2)(c2ccccc2)c2ccccc2)([P+](c2ccccc2)(c2ccccc2)c2ccccc2)[O]1 [complex (7), AgNO3(PPh3)2] | – | 30.6 | –
5 | c1ccc(P(c2ccccc2)c2ccccc2)cc1 [Ligand-1, triphenyl phosphine, reference compound] | minimal | – | –
6 | COc1ccc(P(c2ccc(OC)cc2)c2ccc(OC)cc2)cc1 [Ligand-5, P(p-MeOC6H4)3, reference compound] | minimal | – | cells' viability [3]: 80.7%
7 | [AgSCN{P(4-MeOC6H4)3}2]n [complex (5)] | – | – | necrotic cell death (morphology) [1]: Necrotic cell death was also observed; percentage cellular viability / toxicity ([3]; 10 μM, 24 hour treatment, compared to the control): highly toxic
8 | Cc1ccc(P(c2ccc(C)cc2)c2ccc(C)cc2)cc1 [Ligand-2, P(p-MeC6H4)3, reference compound] | minimal | – | cells' viability [3]: 86.4%
9 | Clc1ccc(P(c2ccc(Cl)cc2)c2ccc(Cl)cc2)cc1 [Ligand-4, tris parachlorophenyl phosphine, reference compound] | minimal | – | –
